Source: ChEMBL document CHEMBL1157539, “Thousands of chemical starting points for antimalarial lead identification” (Nature, 2010)

Tested on: Plasmodium falciparum
Assay: GSK_TCMDC: Inhibition of Plasmodium falciparum 3D7 in whole erythrocytes, using parasite LDH activity as an index of growth.
Format: functional, organism-based
Conditions: Plasmodium falciparum, 3D7

Row | Structure (SMILES) | XC50
1 | O=C(Cn1c(CCc2cccc(F)c2F)nc(=O)c2ccccc21)N(CCCN1CCCCC1)Cc1ccc(-c2ccc(C(F)(F)F)cc2)cc1 | 762 nM
2 | CCN1CCCC1CN(Cc1ccc(-c2ccc(C(F)(F)F)cc2)cc1)C(=O)Cn1c(CCc2cccc(F)c2F)nc(=O)c2ccccc21 (stereo not drawn) | 1590 nM
3 | CCN(CC)CCN(Cc1ccc(-c2ccc(C(F)(F)F)cc2)cc1)C(=O)Cn1c(SCc2ccc(F)cc2)nc(=O)c2sccc21 | 987 nM
4 | C=CCc1cc(Cc2cnc(N)nc2N)cc(CCC)c1O | 986 nM
5 | COc1cc([N+](=O)[O-])ccc1NC(=O)c1cc(Cl)ccc1O | 1140 nM
6 | O=C(Nc1ccc(CN2CCN(S(=O)(=O)c3ccc(Cl)s3)CC2)cc1)c1cccs1 | 894 nM
7 | Cc1[nH]c(C)c(-c2ccc(Oc3ccc(F)cc3)cc2)c(=O)c1Cl | 50.5 nM
8 | COc1ccc(CNC2Cc3ccccc3C2)cc1-c1ccc(S(=O)(=O)NCCN2CCCC2)cc1 | 582 nM
9 | Cc1ccc2cc(NC(=O)c3cccc(C(=O)Nc4ccc5nc(C)ccc5c4)n3)ccc2n1 | 1170 nM
10 | COc1ccc2nccc([C@@H](O)CN3CCC(NC(=O)c4ccc(Cl)c(OC)c4)CC3)c2c1 | 792 nM
11 | CC(Cc1ccc(Oc2ccc(Cl)cc2)cc1)NCC(O)c1cccc(Cl)c1 (stereo not drawn) | 739 nM
12 | CN(C)c1ccc(-c2csc(C(=O)NCC3CCN(CCC(C)(C)C)C3)c2)cc1 (stereo not drawn) | 1500 nM
13 | Oc1ccc2[nH]cc(C3CCN(CCC(c4ccccc4)c4ccccc4)CC3)c2c1 | 994 nM
14 | COC(=O)c1ccc(C[C@@H](C)NC[C@H](O)c2cccc(C(F)(F)F)c2)cc1 | 790 nM
15 | COc1ccc(NC(=O)CCNc2cc(C)nc(NCCOc3ccccc3)n2)cc1 | 746 nM
16 | CN(C)CCn1c(=N)n(CC(O)c2ccc(Cl)c(Cl)c2)c2ccccc21 (stereo not drawn) | 798 nM
17 | CCNc1cc(C(=O)N[C@@H](Cc2ccccc2)[C@H](O)CNCc2cccc(OC)c2)c(OC)c(N2CCCCS2(=O)=O)c1 | 689 nM
18 | O=C(c1cc(OC(F)(F)F)ccc1O)N1CCN(c2ccccc2)CC1 | 1050 nM
19 | Cc1ccc(F)c(OCC2CCCN(c3ccc(C(=O)NC4CC4)cn3)C2)c1 (stereo not drawn) | 773 nM
20 | COc1ccc(CNCc2ccccc2)cc1-c1cccc(S(=O)(=O)NCCN2CCCC2)c1 | 786 nM
21 | N=C(N)NC(=O)Nc1cc(F)c(Cl)c(Cl)c1 | 505 nM
22 | O=C(C=Cc1ccc(C(=O)Nc2ccc(C3=NCCN3)cc2)cc1)Nc1ccc(C2=NCCN2)cc1 | 34.7 nM
23 | COc1ccc2ncn(-c3ccc(C(N)=O)c(OCc4ccccc4C(F)(F)F)c3)c2c1 | 540 nM
24 | CN1CCN(CCCN(Cc2csc(-c3ccc(CNCc4ccccc4)cc3)n2)C(=O)Nc2cccc(Cl)c2)CC1 | 789 nM
25 | O=C(N[C@@H](Cc1ccccc1)C(=O)NCCN1CCCC1)c1ccc(O)c(-c2ccc(Cl)c(Cl)c2)c1 | 800 nM

Row | Structure (SMILES) | XC50
26 | O=C(NCCCCCN1CCC(c2c[nH]c3ccccc23)CC1)Nc1cccc(Br)c1 | 1110 nM
27 | COc1ccc(-c2csc(N(CCCN(C)C)C(=O)c3cc4c(C)nn(-c5ccccc5)c4s3)n2)cc1 | 623 nM
28 | NCc1cccc(-c2ccc(CNC3CCN(Cc4ccccc4)CC3)cc2)c1 | 1700 nM
29 | CCCc1cc(Cc2cnc(N)nc2N)c2cccnc2c1OC | 675 nM
30 | CN(C)CCCNCc1ccc(-c2ccc(CNCCOc3ccccc3)cc2)cc1 | 18.6 nM
31 | CCCCCc1cc(O)c2c(c1)OC(C)(C)c1ccncc1-2 | 763 nM
32 | CCCCOc1cc2ncc(C(=O)OCC)c(O)c2cc1OCCCC | 201 nM
33 | CC(C)CC(=O)N1CCNC[C@@H]1C(=O)NCCSCc1c(F)cccc1Cl | 1200 nM
34 | O=C(NC1CCC1)C1CCN(C(c2ccccc2)c2cc(F)cc(F)c2)CC1 (stereo not drawn) | 797 nM
35 | CCOC(=O)c1cc(C(=O)NCCCCN2CCC(c3cn(C)c4ccccc34)CC2)ccc1-c1ccc(C(F)(F)F)cc1 | 1200 nM
36 | CC(C)C(=O)NC(Nc1ccc([N+](=O)[O-])cc1)C(Cl)(Cl)Cl (stereo not drawn) | 835 nM
37 | CC1(C)NC(N)=NC(=N)N1OCCCCOc1ccc(Cl)cc1C1CCCCC1 | 3.2 nM
38 | O=C(CSc1nccn1C1CCCC1)Nc1cc(C(F)(F)F)ccc1Cl | 382 nM
39 | N#Cc1ccc2c(c1)CN(C1CCC(NC(=O)C3=Cc4cc(Cl)ccc4OC3)CC1)CCC2 (stereo not drawn) | 1330 nM
40 | CN(C)CC(O)C(O)(c1ccccc1)c1ccc(F)cc1 (stereo not drawn) | 1150 nM
41 | O=C(COc1ccc(Cl)cc1)N1CCC(CN2CCC(c3c[nH]c4ccccc34)CC2)CC1 | 1100 nM
42 | CCCCSc1c(CNCCCCCCNCc2ccc3ccccc3c2SCCCC)ccc2ccccc12 | 999 nM
43 | FC(F)(F)c1ccc2[nH]c(-c3ccc(-c4ccc(CNCc5cnn(-c6ccccc6)n5)cc4)cc3)nc2c1 | 433 nM
44 | CCCCCCCN1CC[C@@H](C[C@H](N)Cc2ccnc3ccc(OC)cc23)[C@@H](CC)C1 | 1070 nM
45 | N#Cc1ccc(S(=O)(=O)N2C(c3cccc([N+](=O)[O-])c3)C(C(=O)c3ccccc3)N(C3CCCCC3)C2c2cccc([N+](=O)[O-])c2)cc1 (stereo not drawn) | 1080 nM
46 | Cc1ccc(NC(=O)Nc2ccccc2)cc1-c1ccc(C(=O)Nc2ccncc2)cc1 | 240 nM
47 | COc1ccc(Cl)cc1-c1nc(C(=O)NCCN2CCCCC2)c(C)s1 | 938 nM
48 | CC(C)C[C@@H](/C=N/N1CCOC1=O)NC(=O)[C@H](CC(C)C)NC(=O)c1ccc(OCCN2CCOCC2)cc1 | 215 nM
49 | C=CCc1ccc(C[C@H](NC(=O)OC(C)(C)C)C(=O)OC)cc1 | 814 nM
50 | CC(=O)Nc1ccc(OCCN(CC(C)(C)C)c2ccc(C#N)c(C(F)(F)F)c2)c(Cl)c1 | 493 nM

Row | Structure (SMILES) | XC50
51 | Nc1c2c(nc3ccccc13)C(=Cc1ccc(O)cc1)CCC2 | 176 nM
52 | c1ccc2c(CNCCCCCCNCc3c(OCC4CC4)ccc4ccccc34)c(OCC3CC3)ccc2c1 | 928 nM
53 | Cc1cc(N(C)C)nc(Nc2ccc(NC(=O)c3ccccc3Cl)cc2)n1 | 1020 nM
54 | Cc1[nH]c(C)c(-c2ccc(OCc3ccc(F)cc3)cc2)c(=O)c1Cl | 566 nM
55 | O=C(Nc1ccc(Cl)c(Cl)c1)N(Cc1ccccc1Br)C1CCNCC1 | 1030 nM
56 | Cc1ccccc1C1CCN(C2CCC(NC(=O)/C=C/c3cc(F)ccc3C(F)(F)F)CC2)CC1 (stereo not drawn) | 953 nM
57 | CCCc1ccc(C2CCN(CCCCNC(=O)c3ccc(NC(=O)c4ccc(Cl)cc4)cc3)CC2)cc1 | 628 nM
58 | COc1ccc2nccc([C@@H](O)CN3CCC(NCc4nc5cc(F)ccc5o4)CC3)c2c1 | 149 nM
59 | O=C(CCc1c[nH]cn1)Nc1ccc(-c2cccc(-c3nc4ccccc4[nH]3)c2)cc1 | 348 nM
60 | CCNC(=O)Nc1ccc(-c2cccc(-c3nc4cccc(C)c4[nH]3)c2)cc1 | 756 nM
61 | CC(C)n1ncc2c(C(=O)N3CCCCCC3)cc(-c3ccccc3)nc21 | 789 nM
62 | O=c1cc(NCCCNCc2scc3c(Cl)cc(C(F)(F)F)nc23)[nH]c2ccccc12 | 754 nM
63 | Brc1ccc(Nc2nc(NCC3CCCO3)c3ccccc3n2)cc1 (stereo not drawn) | 584 nM
64 | CCOC(=O)NC1=NC(C)(C)N(OCc2cccc3c2ccc2ccccc23)C(NC(=O)OCC)=N1 | 172 nM
65 | O=C(CCNc1ccnc(NCCc2ccc(F)cc2)n1)Nc1ccccc1 | 829 nM
66 | COc1ccc(-c2nnc(Sc3ccc(C#N)c([N+](=O)[O-])c3)n2CC(C)C)cc1 | 821 nM
67 | CC(=O)N/N=C/[C@H](CCc1ccccc1)NC(=O)[C@H](CC(C)C)NC(=O)c1ccc(F)cc1 | 692 nM
68 | COc1cc2nc(NCc3cccc(CNC(=O)c4ccc(-c5ccc(C(C)=O)cc5)cc4)c3)nc(N)c2cc1OC | 118 nM
69 | Cc1cc(C(=O)NC2CCN(Cc3ccccc3)CC2)ccc1-c1nc2cc(Cl)c(Cl)cc2[nH]1 | 959 nM
70 | Cc1nc(C(C)Nc2nncc(-c3ccc(Cl)cc3)n2)cs1 (stereo not drawn) | 1330 nM
71 | Cc1cc(NCCCN2CCCC2=O)n2c(nc3ccccc32)c1C#N | 858 nM
72 | Cc1[nH]c(CNCCCNc2cc(=O)c3ccccc3[nH]2)c(Br)c1Br | 1040 nM
73 | CC(=O)Nc1ccc(C(=O)N2CCN(c3ccnc4cc(Cl)ccc34)CC2)cc1 | 909 nM
74 | Cc1nc2ccccc2n1C1CC2CCC(C1)N2CCCC1(c2ccccc2)CCN(C(=O)OCc2ccccc2)CC1 (stereo not drawn) | 998 nM
75 | Nc1ccc(-c2nc3cc(Oc4ccc5[nH]c(-c6ccc(N)cc6)nc5c4)ccc3[nH]2)cc1 | 719 nM

Row | Structure (SMILES) | XC50
76 | Oc1ccc(CCNc2nc(NCCCOc3ccccc3-c3ccncc3)nc(N3CCNCC3)n2)cc1 | 1110 nM
77 | FC(F)(F)c1cccc(N=C(S)NN=Cc2ccccn2)c1 | 346 nM
78 | CC1(C)CC(NCCCCCCCOc2ccc(OCc3ccccc3)cc2)CC(C)(C)N1 | 827 nM
79 | COc1ccccc1OCCN(CC(O)COc1cccc2[nH]c3ccccc3c12)CC(O)COc1cccc2[nH]c3ccccc3c12 (stereo not drawn) | 636 nM
80 | O=C(Nc1ccccc1)N(Cc1cccc(-c2ccc(CNC3CCCC3)cc2)c1)C1CCN(Cc2ccccc2)CC1 | 394 nM
81 | Cc1cc2c(NC(=O)NC3CCN(CCc4cccc(Cl)c4)CC3)cccc2cn1 | 370 nM
82 | Cc1c(CNCCCNc2nc3cscc3[nH]2)sc(C(F)F)c1Br | 936 nM
83 | CC(C)(C)Oc1ccc(CC2NC3(C(=O)N(Cc4ccc(C(C)(C)C)cc4)c4ccccc43)C3C(=O)N(c4ccc(Br)cc4)C(=O)C23)cc1 (stereo not drawn) | 717 nM
84 | CC(=O)CCc1ccc(OCCN(Cc2ccccc2C(F)(F)F)c2ccc(C#N)c(C(F)(F)F)c2)cc1 | 267 nM
85 | CC1(C)N=C(N)N=C(N)N1OCCCCON1C(N)=NC(N)=NC1(C)C | 66 nM
86 | O=S(=O)(ON=C1CCc2ccccc21)c1ccc(Cl)cc1 | 1310 nM
87 | CC(=O)N[C@H](C(=O)Nc1ccc(-c2cccc(-c3nc4cccc(C)c4[nH]3)c2)cc1)C(C)C | 1090 nM
88 | C[C@@H](N/C(=N\c1ccc(-c2ccccc2)cc1)Nc1ccc(C#N)cc1O)c1ccc(Br)cc1 | 699 nM
89 | CN1CCCN(Cc2cccc(-c3cccc(NC(=O)c4ccc(Cl)cc4)c3)c2)CC1 | 922 nM
90 | COc1ccc2ncc(F)c([C@@H](O)CN3CCC(NCc4cc5c(cn4)OCCO5)CC3)c2c1 | 140 nM
91 | Cc1ccc(NC(=O)c2c(C)noc2-c2snnc2C)cc1 | 1370 nM
92 | O=C(NC(Nc1ccc([N+](=O)[O-])cc1)C(Cl)(Cl)Cl)c1ccc(Cl)cc1 (stereo not drawn) | 782 nM
93 | Cc1c(-c2cccc(C(C)(C)NCCCN3CCCCC3)c2)cnc(N)c1C | 938 nM
94 | Cc1cnc2cc3c(cc2c1N1CCN(C)CC1)NCC3 | 779 nM
95 | CC(C)CCN1CCC(Oc2ccc(NC(=O)c3ccc(F)cc3)cc2Cl)CC1 | 725 nM
96 | CCOC(=O)c1cnc2c(C(F)(F)F)cccc2c1Nc1ccc(O)cc1 | 632 nM
97 | Cc1ccccc1C1CCN(C2CCC(NC(=O)c3ccc(-c4ccccn4)s3)CC2)CC1 (stereo not drawn) | 1180 nM
98 | CCc1c(CCNCCCCCCNC(C)Cc2ccc3c(c2CC)OCO3)ccc(OC)c1OC (stereo not drawn) | 870 nM
